# Reference: ChEMBL document CHEMBL4616592, “Design, synthesis and bio-evaluation of C-1 alkylated tetrahydro-β-carboline derivatives as novel antifungal lead compounds” (Bioorg Med Chem Lett, 2020)
# Activity calls are given as the source filed them. The rule behind the calls is not given here.
# Key:
# Candida albicans = assay: Antifungal activity against Candida albicans assessed as fungal growth inhibition; format: functional
# Nakaseomyces glabratus [1] = assay: Antifungal activity against Candida glabrata assessed as fungal growth inhibition; format: functional
# Candida tropicalis = assay: Antifungal activity against Candida tropicalis assessed as fungal growth inhibition; format: functional
# Pichia kudriavzevii = assay: Antifungal activity against Candida krusei assessed as fungal growth inhibition; format: functional
# Candida parapsilosis = assay: Antifungal activity against Candida parapsilosis assessed as fungal growth inhibition; format: functional; settings: Lodderomyces parapsilosis
# Cryptococcus neoformans = assay: Antifungal activity against Cryptococcus neoformans assessed as fungal growth inhibition; format: functional
# Kluyveromyces marxianus = assay: Antifungal activity against Candida kefyr assessed as fungal growth inhibition; format: functional
# Nakaseomyces glabratus [2] = assay: Synergistic antifungal activity against Candida glabrata assessed as fractional inhibitory concentration index in presence of amphotericin B by checkerboard assay; format: functional
# [3] = Cytotoxicity against human HEK293 cells assessed as cell viability at 2.5 uM by MTT assay relative to control; format: cell-based; settings: read-out: Activity
# Nakaseomyces glabratus [4] = assay: Induction of morphological changes in Candida glabrata assessed as increase in asymmetry at 9.7 uM by FE-SEM analysis; format: functional, organism-based
# [5] = Cytotoxicity against human HEK293 cells assessed as reduction in cell viability at 10 uM by MTT assay relative to control; format: cell-based; settings: read-out: INH
# Nakaseomyces glabratus [6] = assay: Fungicidal activity against Candida glabrata assessed as time taken to kill fungal colony at MIC by time kill kinetic assay; format: functional
# Nakaseomyces glabratus [7] = assay: Induction of apoptosis in Candida glabrata assessed as late apoptotic cells at 9.70 uM incubated for 4 hrs by annexin V-FITC/propidium iodide staining based analysis (reference value: 0.1%); format: functional
# Nakaseomyces glabratus [8] = assay: Induction of morphological changes in Candida glabrata assessed as roughness of cell surface at 9.7 uM by FE-SEM analysis; format: functional, organism-based
# [9] = Cytotoxicity against human HeLa cells assessed as reduction in cell viability at 10 uM by MTT assay relative to control; format: cell-based; settings: read-out: INH
# Nakaseomyces glabratus [10] = assay: Synergistic antifungal activity against Candida glabrata assessed as fold potentiation of AmphotericinB MIC for antifungal activity by checkerboard assay relative to control; format: functional
# Nakaseomyces glabratus [11] = assay: Induction of apoptosis in Candida glabrata assessed as live cells at 9.70 uM incubated for 4 hrs by annexin V-FITC/propidium iodide staining based analysis (reference value: 95.5%); format: functional
# [12] = Cytotoxicity against human HEK293 cells assessed as cell viability at 20 to 50 uM by MTT assay relative to control; format: cell-based; settings: read-out: Activity
# Nakaseomyces glabratus [13] = assay: Induction of morphological changes in Candida glabrata assessed as disintegration of cell surface at 9.7 uM by FE-SEM analysis; format: functional, organism-based
# Nakaseomyces glabratus [14] = assay: Synergistic antifungal activity against Candida glabrata assessed as fractional inhibitory concentration index in presence of fluconazole by checkerboard assay; format: functional
# Nakaseomyces glabratus [15] = assay: Synergistic antifungal activity against Candida glabrata assessed as fold potentiation of ketoconazole MIC for antifungal activity by checkerboard assay relative to control; format: functional
# Nakaseomyces glabratus [16] = assay: Induction of apoptosis in Candida glabrata assessed as necrotic cells at 9.70 uM incubated for 4 hrs by annexin V-FITC/propidium iodide staining based analysis (reference value: 1.4%); format: functional
# Nakaseomyces glabratus [17] = assay: Synergistic antifungal activity against Candida glabrata assessed as fold potentiation of fluconazole MIC for antifungal activity by checkerboard assay relative to control; format: functional
# Nakaseomyces glabratus [18] = assay: Synergistic antifungal activity against Candida glabrata assessed as fractional inhibitory concentration index in presence of ketoconazole by checkerboard assay; format: functional
# [19] = Cytotoxicity against human HeLa cells assessed as cell viability at 20 to 50 uM by MTT assay relative to control; format: cell-based; settings: read-out: Activity
# Nakaseomyces glabratus [20] = assay: Induction of apoptosis in Candida glabrata assessed as early apoptotic cells at 9.70 uM incubated for 4 hrs by annexin V-FITC/propidium iodide staining based analysis (reference value: 3%); format: functional
SMILES,MIC (Candida albicans),MIC (Nakaseomyces glabratus [1]),MIC (Candida tropicalis),MIC (Pichia kudriavzevii),MIC (Candida parapsilosis),MIC (Cryptococcus neoformans),MIC (Kluyveromyces marxianus),further results
COC(=O)[C@@H]1Cc2c([nH]c3ccccc23)[C@@H](c2ccccc2)N1,> 250 µM,> 250 µM,> 250 µM,> 250 µM,> 250 µM,> 250 µM,125 µM,–
CCCC[C@@H]1N[C@H](C(=O)OC)Cc2c1[nH]c1ccccc21,> 250 µM,> 250 µM,> 250 µM,> 250 µM,> 250 µM,> 250 µM,> 250 µM,–
COC(=O)[C@@H]1Cc2c([nH]c3ccccc23)[C@H](c2cccs2)N1,> 250 µM,> 250 µM,> 250 µM,> 250 µM,> 250 µM,> 250 µM,> 250 µM,–
COC(=O)[C@@H]1Cc2c([nH]c3ccccc23)[C@H](c2ccccc2)N1,> 250 µM,> 250 µM,> 250 µM,> 250 µM,> 250 µM,> 250 µM,> 250 µM,–
CCCCCC[C@@H]1N[C@H](C(=O)OC)Cc2c1[nH]c1ccccc21,> 250 µM,> 250 µM,> 250 µM,> 250 µM,> 250 µM,156 µM,> 250 µM,–
OC(Cn1cncn1)(Cn1cncn1)c1ccc(F)cc1F [FLUCONAZOLE],–,13.1 µM,–,–,–,–,–,–
CCCCCCCCCCC[C@@H]1N[C@H](C(=O)OC)Cc2c1[nH]c1ccccc21,> 250 µM,> 250 µM,> 250 µM,> 250 µM,> 250 µM,> 250 µM,> 250 µM,–
CCCCCCCC[C@@H]1N[C@H](C(=O)OC)Cc2c1[nH]c1ccccc21,> 250 µM,62.5 µM,> 250 µM,> 250 µM,> 250 µM,39.1 µM,62.5 µM,–
CCCCCCCC[C@H]1N[C@H](C(=O)OC)Cc2c1[nH]c1ccccc21,39.1 µM,9.7 µM,19.6 µM,19.6 µM,39.1 µM,19.6 µM,9.7 µM,fractional inhibitory concentration index (FICI) (Nakaseomyces glabratus [2]): 0.24; viability at 2.5 µM [3]: 95%; Activity (Nakaseomyces glabratus [4]): Active; cytotoxicity at 10 µM [5]: 10%; Time (Nakaseomyces glabratus [6]): 12 h; Activity (Nakaseomyces glabratus [7]): 87.7%; Activity (Nakaseomyces glabratus [8]): Active; cytotoxicity at 10 µM [9]: 14%; fold change (FC) (Nakaseomyces glabratus [10]): 11; Activity (Nakaseomyces glabratus [11]): 5.6%; viability at up to 50 µM [12]: 70 to 80%; Activity (Nakaseomyces glabratus [13]): Active; fractional inhibitory concentration index (FICI) (Nakaseomyces glabratus [14]): 0.48; fold change (FC) (Nakaseomyces glabratus [15]): 9; Activity (Nakaseomyces glabratus [16]): 3.2%; fold change (FC) (Nakaseomyces glabratus [17]): 4; fractional inhibitory concentration index (FICI) (Nakaseomyces glabratus [18]): 0.35 - 0.38; viability at up to 50 µM [19]: 70 to 80%; Activity (Nakaseomyces glabratus [20]): 3.5%
C[C@@H]1[C@H](O)[C@@H](C)/C=C/C=C/C=C/C=C/C=C/C=C/C=C/[C@H](O[C@@H]2O[C@H](C)[C@@H](O)[C@H](N)[C@@H]2O)C[C@@H]2O[C@](O)(C[C@@H](O)C[C@@H](O)[C@H](O)CC[C@@H](O)C[C@@H](O)CC(=O)O[C@H]1C)C[C@H](O)[C@H]2C(=O)O [AMPHOTERICIN B],1.56 µM,0.39 to 0.78 µM,0.78 µM,0.78 µM,1.56 µM,0.78 µM,12.5 µM,Time (Nakaseomyces glabratus [6]): 4 h
COC(=O)[C@@H]1Cc2c([nH]c3ccccc23)[C@H](c2ccc3c(c2)OCO3)N1,> 250 µM,> 250 µM,> 250 µM,> 250 µM,> 250 µM,> 250 µM,> 250 µM,–
CC(=O)N1CCN(c2ccc(OCC3COC(Cn4ccnc4)(c4ccc(Cl)cc4Cl)O3)cc2)CC1 (stereo unspecified) [KETOCONAZOLE],–,15.1 µM,–,–,–,–,–,–
COC(=O)[C@@H]1Cc2c([nH]c3ccccc23)[C@@H](c2cccs2)N1,> 250 µM,> 250 µM,> 250 µM,> 250 µM,> 250 µM,> 250 µM,> 250 µM,–
CCCCCC[C@H]1N[C@H](C(=O)OC)Cc2c1[nH]c1ccccc21,> 250 µM,> 250 µM,> 250 µM,> 250 µM,> 250 µM,> 250 µM,> 250 µM,–
COC(=O)[C@@H]1Cc2c([nH]c3ccccc23)[C@@H](c2cccnc2)N1,> 250 µM,> 250 µM,> 250 µM,> 250 µM,> 250 µM,> 250 µM,> 250 µM,–
CCCCCCCCCCC[C@H]1N[C@H](C(=O)OC)Cc2c1[nH]c1ccccc21,> 250 µM,> 250 µM,> 250 µM,> 250 µM,> 250 µM,> 250 µM,> 250 µM,–
COC(=O)[C@@H]1Cc2c([nH]c3ccccc23)[C@H](c2cccnc2)N1,> 250 µM,> 250 µM,> 250 µM,> 250 µM,> 250 µM,> 250 µM,> 250 µM,–
COC(=O)[C@@H]1Cc2c([nH]c3ccccc23)[C@@H](c2ccc3c(c2)OCO3)N1,> 250 µM,> 250 µM,> 250 µM,> 250 µM,> 250 µM,> 250 µM,> 250 µM,–
CCCC[C@H]1N[C@H](C(=O)OC)Cc2c1[nH]c1ccccc21,> 250 µM,> 250 µM,> 250 µM,156 µM,156 µM,> 250 µM,156 µM,–
